Measurements: patent US9439430B2, “Method of controlling resistant harmful plants” (priority 2012, dated 2016)

What was measured:
AMATA [1] = assay: Greenhouse test, post-emergence (PO) application, foliar effect; format: in vivo, Amaranthus rudis; conditions: (A) 50, (B) 20, mixture 50 + 20 g of AS/ha, 3 weeks after application
Text: (§1) The 1:1 mixture of the two soil types was used specifically for cultivating small-seeded dicotyledonous weed since the standard field soil on its own tends to silt up, which may have an adverse effect on the emergence of small-seeded weeds. The resistances mentioned in the tables were confirmed beforehand in standard monitoring experiments. Nevertheless, the origins examined may have additional, hitherto unconfirmed resistances to various mechanisms of action.
(§2) The pots were then cultivated in a greenhouse (12-16 h light, temperature day 20-22° C., night 15-18° C.) until the time of application. The pots were treated at various BBCH stages of the seeds/plants on a laboratory track sprayer with spray liquors comprising the compositions according to the invention, mixtures of the prior art or the individual components. Application of the active compounds or active compound combinations and wetting agents formulated as WG, WP, EC or otherwise was carried out at the appropriate growth stages of the plants. The amount of water used for spray application was 100-600 l/ha. After the treatment, the plants were returned to the greenhouses and fertilized and watered as required. The pots were cultivated in a greenhouse (12-16 h light, temperature day 20-22° C., night 15-18° C.).
(§3) 3 weeks after the application, the foliar effect was evaluated on a scale of 0-100%:
(§4) 0%=no noticeable effect compared to untreated plants
(§5) 100%=full effect compared to untreated plants
(§6) The following abbreviations were used: • BBCH the BBCH code provides information about the morphological development stage of a plant. Officially, the abbreviation denotes the Biologische Bundesanstalt, Bundessortenamt and CHemische Industrie [Federal Biological Institute for Agriculture and Forestry, Federal Office for Crop Plant Varieties, Chemical Industry]. The range of BBCH 00-10 denotes the germination stages of the seeds until surface penetration. The range of BBCH 11-25 denotes the leaf development stages until stocking (corresponds to the number of tillers or side-shoots). • PE pre-emergence soil application; BBCH of the seeds/plants 00-10 • PO post-emergence application on the green parts of the plants; BBCH of the plants 11-25 • IU soil loamy silt—standard field soil • l/ha liters per hectare • S sensitive—the weed populations are sensitive to the active compounds tested • TSR target-site resistance. The weed populations comprise biotypes having a site-of-action-specific resistance, i.e. the binding site at the site of action is modified as a result of natural mutations in the gene sequence so that the active compounds are no longer able to bind, or bind in an unsatisfactory manner, and are therefore no longer able to act. • NTR non-target-site herbicide resistance; this is differentiated, inter alia, into EMR (Enhanced Metabolic Resistance) (the weed populations comprise biotypes having metabolic resistance, i.e. the plants are capable of metabolizing the active compounds more quickly via enzyme complexes, i.e. the active compounds are degraded more quickly in the plant), into reduced penetration into the plant, reduced translocation in the plant, accelerated excretion. […]

[2] = tested on: TTTTT (all resistant and sensitive biotypes); assay: Greenhouse test, PO application, mean over all resistant and sensitive biotypes; format: in vivo; conditions: (A) 50, (B) 20, mixture 50 + 20 g of AS/ha; for TTTTT resistant mean (effect): mean of resistant biotypes (n = 17 or n = 15); for TTTTT sensitive mean (effect): mean of sensitive biotypes (n = 11)
Text: as §1, §2, §3, §4, §5, §6

APESV = assay: Greenhouse test, post-emergence (PO) application, foliar effect; format: in vivo, Apera spica-venti; conditions: (A) 50, (B) 20, mixture 50 + 20 g of AS/ha, 3 weeks after application
Text: as §1, §2, §3, §4, §5, §6

EPHHL = assay: Greenhouse test, pre-emergence (PE) soil application; format: in vivo, Euphorbia heterophylla; design: key: % effect: 0 = no effect, 100 = full effect vs untreated
Text: as §1, §2, §3, §4, §5, §6

ERICA [3] = assay: as above; format: in vivo, Erigeron canadensis; design: key: % effect: 0 = no effect, 100 = full effect vs untreated
Text: as §1, §2, §3, §4, §5, §6

CHEAL [4] = assay: as above; format: in vivo, Chenopodium album; design: key: % effect: 0 = no effect, 100 = full effect vs untreated
Text: as §1, §2, §3, §4, §5, §6

KCHSC = assay: as above; format: in vivo, Kochia scoparia; design: key: % effect: 0 = no effect, 100 = full effect vs untreated
Text: as §1, §2, §3, §4, §5, §6

ALOMY [5] = assay: as above; format: in vivo, Alopecurus myosuroides
Text: as §1, §2, §3, §4, §5, §6

LOLSS = assay: as above; format: in vivo, Lolium spp.; design: key: % effect: 0 = no effect, 100 = full effect vs untreated plants
Text: as §1, §2, §3, §4, §5, §6

ALOMY [6] = assay: Greenhouse test, post-emergence (PO) application, foliar effect; format: in vivo, Alopecurus myosuroides; conditions: ALOMY sensitive, (A) 50, (B) 20, mixture 50 + 20 g of AS/ha, 3 weeks after application
Text: as §1, §2, §3, §4, §5, §6

AMATA [7] = assay: Greenhouse test, pre-emergence (PE) soil application; format: in vivo, Amaranthus rudis; design: key: % effect: 0 = no effect, 100 = full effect vs untreated
Text: as §1, §2, §3, §4, §5, §6

CHEAL [8] = assay: Greenhouse test, post-emergence (PO) application, foliar effect; format: in vivo, Chenopodium album; conditions: (A) 50, (B) 20, mixture 50 + 20 g of AS/ha, 3 weeks after application
Text: as §1, §2, §3, §4, §5, §6

BIDSU = assay: as above; format: in vivo, Bidens subalternans; conditions: BIDSU sensitive, (A) 50, (B) 20, mixture 50 + 20 g of AS/ha, 3 weeks after application
Text: as §1, §2, §3, §4, §5, §6

ERIBO = assay: Greenhouse test, pre-emergence (PE) soil application; format: in vivo, Erigeron bonariensis; design: key: % effect: 0 = no effect, 100 = full effect vs untreated
Text: as §1, §2, §3, §4, §5, §6

AMAPA = assay: Greenhouse test, post-emergence (PO) application, foliar effect; format: in vivo, Amaranthus palmeri; conditions: AMAPA resistant - group B (TSR), C1 (TSR) and G (NTR), (A) 50, (B) 20, mixture 50 + 20 g of AS/ha, 3 weeks after application
Text: as §1, §2, §3, §4, §5, §6

ERICA [9] = assay: as above; format: in vivo, Erigeron canadensis; conditions: (A) 50, (B) 20, mixture 50 + 20 g of AS/ha, 3 weeks after application
Text: as §1, §2, §3, §4, §5, §6

[10] = AMATA resistant - group B (TSR), C1 (TSR)
[11] = APESV resistant - group B (TSR, NTR) and K1/3 (NA)
[12] = CHEAL resistant - group B (TSR), C1 (NA) and G (NTR)
[13] = ERICA resistant - group B (NA) and G (NTR)
[14] = group (B) compound alone, 20 g of AS/ha

Row | SMILES | foliar effect (AMATA [1]; [10]) | foliar effect (AMATA [1]; AMATA sensitive) | TTTTT resistant mean (effect) [2] | TTTTT sensitive mean (effect) [2] | foliar effect (APESV; [11]) | foliar effect (APESV; APESV sensitive) | foliar effect (ALOMY [6]) | foliar effect (CHEAL [8]; [12]) | foliar effect (CHEAL [8]; CHEAL sensitive) | foliar effect (BIDSU) | foliar effect (AMAPA) | foliar effect (ERICA [9]; [13]) | foliar effect (ERICA [9]; ERICA sensitive) | effect on EPHHL resistant - group B (TSR) (EPHHL; [14]) | effect on EPHHL resistant - group B (TSR) and G (NTR) (EPHHL; [14]) | effect on EPHHL sensitive (EPHHL; [14]) | effect on ERICA resistant - group B (NA) and G (NTR) (ERICA [3]; [14]) | effect on ERICA sensitive (ERICA [3]; [14]) | effect on CHEAL resistant - group B (TSR), C1 (NA) and G (NTR) (CHEAL [4]; [14]) | effect on CHEAL sensitive (CHEAL [4]; [14]) | further results
1 | Cc1ccc2c(c1)[C@H](Nc1nc(N)nc(C(C)F)n1)[C@@H](C)C2 (stereo partly shown) [(A), indaziflam] | 40% | 50% | 53% | 58% | 60% | 65% | 75% | 70% | 70% | 40% | 50% | 50% | 50% |  |  |  |  |  |  |  | effect on EPHHL resistant - group B (TSR) (EPHHL; (A) alone, 12.5 g of AS/ha): 0; effect on EPHHL resistant - group B (TSR) and G (NTR) (EPHHL; (A) alone, 12.5 g of AS/ha): 0; effect on EPHHL sensitive (EPHHL; (A) alone, 12.5 g of AS/ha): 50; effect on ERICA resistant - group B (NA) and G (NTR) (ERICA [3]; (A) alone, 12.5 g of AS/ha): 60; effect on ERICA sensitive (ERICA [3]; (A) alone, 12.5 g of AS/ha): 70; effect on CHEAL resistant - group B (TSR), C1 (NA) and G (NTR) (CHEAL [4]; (A) alone, 12.5 g of AS/ha): 65; effect on CHEAL sensitive (CHEAL [4]; (A) alone, 12.5 g of AS/ha): 70; effect on KCHSC resistant - group B (TSR) (KCHSC; (A) alone, 12.5 g of AS/ha): 40; effect on KCHSC sensitive (KCHSC; (A) alone, 12.5 g of AS/ha): 40; effect on ALOMY sensitive (ALOMY [5]; (A) alone, 12.5 g of AS/ha): 85; effect on LOLSS resistant - group G (NTR) (LOLSS; (A) alone, 12.5 g of AS/ha): 75; effect on LOLSS resistant group A (TSR, NTR), B (NTR) and C2 (NA) (LOLSS; (A) alone, 12.5 g of AS/ha): 50; effect on LOLSS resistant group A (TSR, NTR), B (TSR, NTR) and C2 (NA) (LOLSS; (A) alone, 12.5 g of AS/ha): 50; effect on LOLSS sensitive (LOLSS; (A) alone, 12.5 g of AS/ha): 80; effect on AMATA resistant - group B (TSR), C1 (TSR) (AMATA [7]; (A) alone, 12.5 g of AS/ha): 70; effect on AMATA sensitive (AMATA [7]; (A) alone, 12.5 g of AS/ha): 70; effect on ERIBO resistant - group B (NA) and G (NTR) (ERIBO; (A) alone, 12.5 g of AS/ha): 60; effect on ERIBO sensitive (ERIBO; (A) alone, 12.5 g of AS/ha): 70
2 | COc1cc(OC)nc(NC(=O)NS(=O)(=O)c2ncccc2C(F)(F)F)n1 [(B1), flazasulfuron] | 50% | 60% | 40% | 87% | 30% | 100% | 100% | 70% | 80% | 70% | 40% | 50% | 90% | 0 | 20 | 40 | 0 | 70 | 60 | 88 | effect on KCHSC resistant - group B (TSR) (KCHSC; [14]): 0; effect on KCHSC sensitive (KCHSC; [14]): 70; effect on ALOMY sensitive (ALOMY [5]; [14]): 100; effect on LOLSS resistant - group G (NTR) (LOLSS; [14]): 80; effect on LOLSS resistant group A (TSR, NTR), B (NTR) and C2 (NA) (LOLSS; [14]): 70; effect on LOLSS resistant group A (TSR, NTR), B (TSR, NTR) and C2 (NA) (LOLSS; [14]): 70; effect on LOLSS sensitive (LOLSS; [14]): 70; effect on AMATA sensitive (AMATA [7]; [14]): 70; effect on ERIBO resistant - group B (NA) and G (NTR) (ERIBO; [14]): 0; effect on ERIBO sensitive (ERIBO; [14]): 70
3 | COc1cc(OC)nc(NC(=O)NS(=O)(=O)c2cc(NC=O)ccc2C(=O)N(C)C)n1 [(B2), foramsulfuron] | 90% | 40% | 34% | 74% | 0% | 100% | 100% | 70% | 70% | 30% | 40% | 40% | 50% | 0 | 0 | 30 | 0 | 100 | 40 | 80 | effect on KCHSC resistant - group B (TSR) (KCHSC; [14]): 0; effect on KCHSC sensitive (KCHSC; [14]): 60; effect on ALOMY sensitive (ALOMY [5]; [14]): 90; effect on LOLSS resistant - group G (NTR) (LOLSS; [14]): 65; effect on LOLSS resistant group A (TSR, NTR), B (NTR) and C2 (NA) (LOLSS; [14]): 80; effect on LOLSS resistant group A (TSR, NTR), B (TSR, NTR) and C2 (NA) (LOLSS; [14]): 60; effect on LOLSS sensitive (LOLSS; [14]): 78; effect on AMATA sensitive (AMATA [7]; [14]): 60; effect on ERIBO resistant - group B (NA) and G (NTR) (ERIBO; [14]): 0; effect on ERIBO sensitive (ERIBO; [14]): 100
4 | CCS(=O)(=O)c1cccnc1S(=O)(=O)NC(=O)Nc1nc(OC)cc(OC)n1 [(B3), rimsulfuron] | 90% | 70% | 46% | 88% | 20% | 100% | 100% | 70% | 80% | 70% | 70% | 60% | 90% | 0 | 0 | 30 | 0 | 70 | 45 | 85 | effect on KCHSC resistant - group B (TSR) (KCHSC; [14]): 20; effect on KCHSC sensitive (KCHSC; [14]): 80; effect on ALOMY sensitive (ALOMY [5]; [14]): 100; effect on LOLSS resistant - group G (NTR) (LOLSS; [14]): 60; effect on LOLSS resistant group A (TSR, NTR), B (NTR) and C2 (NA) (LOLSS; [14]): 50; effect on LOLSS resistant group A (TSR, NTR), B (TSR, NTR) and C2 (NA) (LOLSS; [14]): 50; effect on LOLSS sensitive (LOLSS; [14]): 70; effect on AMATA sensitive (AMATA [7]; [14]): 70; effect on ERIBO resistant - group B (NA) and G (NTR) (ERIBO; [14]): 0; effect on ERIBO sensitive (ERIBO; [14]): 70
